Laboratory results reported in patent US20150274719A1, “AMINO-SUBSTITUTED IMIDAZO[1,2-A]PYRIDINECARBOXAMIDES AND THEIR USE” (BAYER PHARMA AKTIENGESELLSCHAFT, priority 2012, published 2015).

Target: T1, recombinant guanylate cyclase reporter cell line (Rattus norvegicus, UniProt P19686+P20595)
T1 construct: expressed in transfected cells; host or cells: recombinant reporter cell line
T1 sequence (P19686 1-690): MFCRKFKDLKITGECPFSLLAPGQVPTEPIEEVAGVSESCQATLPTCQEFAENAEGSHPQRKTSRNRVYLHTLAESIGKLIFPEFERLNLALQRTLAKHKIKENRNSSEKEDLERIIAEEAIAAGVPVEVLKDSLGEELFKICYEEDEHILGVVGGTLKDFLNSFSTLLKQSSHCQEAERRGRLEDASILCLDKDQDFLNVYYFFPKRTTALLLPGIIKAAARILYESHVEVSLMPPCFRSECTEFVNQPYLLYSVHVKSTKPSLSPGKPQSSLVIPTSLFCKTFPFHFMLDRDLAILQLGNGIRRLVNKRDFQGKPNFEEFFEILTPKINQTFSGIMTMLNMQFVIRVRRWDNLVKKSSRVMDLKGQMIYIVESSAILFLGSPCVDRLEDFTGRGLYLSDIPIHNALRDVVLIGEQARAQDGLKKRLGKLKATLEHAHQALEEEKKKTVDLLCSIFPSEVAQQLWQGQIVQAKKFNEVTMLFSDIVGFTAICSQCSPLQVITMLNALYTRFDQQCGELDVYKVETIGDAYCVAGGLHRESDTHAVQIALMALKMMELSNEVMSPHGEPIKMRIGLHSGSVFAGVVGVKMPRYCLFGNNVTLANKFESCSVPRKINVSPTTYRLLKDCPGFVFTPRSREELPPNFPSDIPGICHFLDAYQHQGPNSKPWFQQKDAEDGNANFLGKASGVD
T1 sequence (P20595 1-619): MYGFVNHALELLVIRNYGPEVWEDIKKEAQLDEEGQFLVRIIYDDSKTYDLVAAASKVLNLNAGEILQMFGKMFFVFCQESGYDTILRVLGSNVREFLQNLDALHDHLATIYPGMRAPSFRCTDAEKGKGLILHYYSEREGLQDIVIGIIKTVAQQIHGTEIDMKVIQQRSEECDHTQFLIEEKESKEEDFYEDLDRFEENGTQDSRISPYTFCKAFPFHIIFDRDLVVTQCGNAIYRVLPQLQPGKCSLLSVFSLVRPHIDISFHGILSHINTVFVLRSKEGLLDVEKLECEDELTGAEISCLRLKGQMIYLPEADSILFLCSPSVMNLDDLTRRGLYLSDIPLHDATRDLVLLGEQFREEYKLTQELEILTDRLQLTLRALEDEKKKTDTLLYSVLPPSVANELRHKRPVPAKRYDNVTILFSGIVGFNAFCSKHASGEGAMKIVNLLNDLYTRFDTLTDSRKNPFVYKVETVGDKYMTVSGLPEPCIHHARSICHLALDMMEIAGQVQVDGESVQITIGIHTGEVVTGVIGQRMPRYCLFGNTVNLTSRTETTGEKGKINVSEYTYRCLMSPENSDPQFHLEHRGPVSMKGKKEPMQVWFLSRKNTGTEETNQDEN
Assay: Action on recombinant guanylate cyclase reporter cell line
Format: cell-based
Settings: in some cases mean values from individual determinations
Procedure: B-2. Action on Recombinant Guanylate Cyclase Reporter Cell Line
The cellular action of the compounds according to the invention is determined on a recombinant guanylate cyclase reporter cell line, as described in F. Wunder et al., Anal. Biochem. 339, 104-112 (2005).
Representative MEC values (MEC=minimal effective concentration) for the compounds according to the invention are shown in the following table (in some cases as mean values obtained from individual determinations): […]

SMILES	MEC (minimal effective concentration) [µM]
Cc1cc(OCc2c(F)cccc2F)c2nc(C)c(C(=O)NC3CNc4ccccc4C3)n2c1 (racemic) [Example 76, rac-8-[(2,6-difluorobenzyl)oxy]-2,6-dimethyl-N-(1,2,3,4-tetrahydroquinolin-3-yl)imidazo[1,2-a]-pyridine-3-carboxamide]	0.30
Cc1cc(OCc2c(F)cccc2F)c2nc(C)c(C(=O)NC(C)C3CCN(C)CC3)n2c1 (racemic) [Example 77, rac-8-[(2,6-difluorobenzyl)oxy]-2,6-dimethyl-N-[1-(1-methylpiperidin-4-yl)ethyl]imidazo[1,2-a]-pyridine-3-carboxamide]	1.00
Cc1nc2c(OCc3c(F)cccc3F)cc(Cl)cn2c1C(=O)NC(C)C1CCN(C)CC1 (racemic) [Example 78, rac-6-chloro-8-[(2,6-difluorobenzyl)oxy]-2-methyl-N-[1-(1-methylpiperidin-4-yl)ethyl]-imidazo[1,2-a]pyridine-3-carboxamide]	1.00
Cc1nc2c(OCc3c(F)cccc3F)cccn2c1C(=O)NCC1NCCc2ccccc21 (racemic) [Example 80, rac-8-[(2,6-difluorobenzyl)oxy]-2-methyl-N-(1,2,3,4-tetrahydroisoquinolin-1-ylmethyl)-imidazo[1,2-a]pyridine-3-carboxamide]	1.00
Cc1nc2c(OCc3c(F)cccc3F)cccn2c1C(=O)NC1CCCN(C)C1 (racemic) [Example 84, rac-8-[(2,6-difluorobenzyl)oxy]-2-methyl-N-(1-methylpiperidin-3-yl)imidazo[1,2-a]-pyridine-3-carboxamide]	1.00
Cc1nc2c(OCc3c(F)cccc3F)cccn2c1C(=O)NC1CCN(Cc2ccccc2)C1 (racemic) [Example 85, rac-N-(1-benzylpyrrolidin-3-yl)-8-[(2,6-difluoro-benzyl)oxy]-2-methylimidazo[1,2-a]-pyridine-3-carboxamide]	1.00
Cc1nc2c(OCc3c(F)cccc3F)cc(Cl)cn2c1C(=O)NCC1CCCCN1 (racemic) [Example 118, rac-6-chloro-8-[(2,6-difluorobenzyl)oxy]-2-methyl-N-(piperidin-2-ylmethyl)imidazo[1,2-a]-pyridine-3-carboxamide]	1.00
Cc1nc2c(OCc3c(F)cccc3F)cccn2c1C(=O)NC12CNCCC1C2 (racemic) [Example 125, rac-N-(3-Azabicyclo[4.1.0]hept-1-yl)-8-[(2,6-difluorobenzyl)oxy]-2-methylimidazo[1,2-a]-pyridine-3-carboxamide]	1.00
Cc1nc2c(OCc3c(F)cccc3F)cccn2c1C(=O)NCC(C)N1CCOCC1 (racemic) [Example 132, rac-8-[(2,6-difluorobenzyl)oxy]-2-methyl-N-[2-(morpholin-4-yl)propyl]imidazo[1,2-a]pyridine-3-carboxamide]	1.00
Cc1nc2c(OCc3c(F)cccc3F)cccn2c1C(=O)NC(CN1CCOCC1)c1ccccc1 (racemic) [Example 134, rac-8-[(2,6-difluorobenzyl)oxy]-2-methyl-N-[2-(morpholin-4-yl)-1-phenylethyl]imidazo[1,2-a]-pyridine-3-carboxamide]	3.00
Cc1cc(OCc2c(F)cccc2F)c2nc(C)c(C(=O)NCCNC(C)C)n2c1 (racemic) [Example 135, rac-8-[(2,6-difluorobenzyl)oxy]-N-[2-(isopropylamino)ethyl]-2,6-dimethylimidazo[1,2-a]pyridine-3-carboxamide]	1.00
Cc1cc(OCc2c(F)cccc2F)c2nc(C)c(C(=O)NCC(C)N3CCOCC3)n2c1 (racemic) [Example 138, rac-8-[(2,6-difluorobenzyl)oxy]-2,6-dimethyl-N-[2-(morpholin-4-yl)propyl]imidazo[1,2-a]-pyridine-3-carboxamide]	0.30
Cc1nc2c(OCc3c(F)cccc3F)cccn2c1C(=O)NCC(C(C)C)N(C)C (racemic) [Example 142, rac-8-[(2,6-difluorobenzyl)oxy]-N-[2-(dimethyl-amino)-3-methylbutyl]-2-methylimidazo[1,2-a]-pyridine-3-carboxamide]	1.00
Cc1nc2c(OCc3c(F)cccc3F)cc(Cl)cn2c1C(=O)NCC(N)CC(F)(F)F (racemic) [Example 147, rac-N-(2-amino-4,4,4-trifluorobutyl)-6-chloro-8-[(2,6-difluorobenzyl)oxy]-2-methylimidazo[1,2-a]pyridine-3-carboxamide]	0.30
CCC(C)(N)CNC(=O)c1c(C)nc2c(OCc3c(F)cccc3F)cc(Cl)cn12 (racemic) [Example 157, rac-N-(2-amino-2-methylbutyl)-6-chloro-8-[(2,6-difluorobenzyl)oxy]-2-methylimidazo[1,2-a]-pyridine-3-carboxamide]	0.30
COCC(C)(N)CNC(=O)c1c(C)nc2c(OCc3c(F)cccc3F)cc(Cl)cn12 (racemic) [Example 159, rac-N-(2-amino-3-methoxy-2-methylpropyl)-6-chloro-8-[(2,6-difluorobenzyl)oxy]-2-methylimidazo[1,2-a]pyridine-3-carboxamide]	0.30
COCC(C)(N)CNC(=O)c1c(C)nc2c(OCc3c(F)cccc3F)cc(C)cn12 (racemic) [Example 166, rac-N-(2-amino-3-methoxy-2-methylpropyl)-8-[(2,6-difluorobenzyl)oxy]-2,6-dimethylimidazo[1,2-a]pyridine-3-carboxamide]	0.30

The remaining lines, values ahead:

MEC (minimal effective concentration) [µM]	SMILES
0.10	Cc1nc2c(OCc3c(F)cccc3F)cccn2c1C(=O)NCC(C)(N)CC(C)C (racemic) [Example 202, rac-N-(2-Amino-2,4-dimethylpentyl)-8-[(2,6-difluorobenzyl)oxy]-2-methylimidazo[1,2-a]pyridine-3-carboxamide]
0.30	Cc1nc2c(OCc3c(F)cccc3F)cccn2c1C(=O)NCC(N)COC(C)C (racemic) [Example 205, rac-N-(2-Amino-3-isopropoxypropyl)-8-[(2,6-difluorobenzyl)oxy]-2-methylimidazo[1,2-a]-pyridine-3-carboxamide]
0.30	Cc1cc(OCc2c(F)cccc2F)c2nc(C)c(C(=O)NCC(N)COC(C)C)n2c1 (racemic) [Example 206, rac-N-(2-Amino-3-isopropoxypropyl)-8-[(2,6-difluorobenzyl)oxy]-2,6-dimethylimidazo[1,2-a]-pyridine-3-carboxamide]
1.00	Cc1nc2c(OCc3c(F)cccc3F)cccn2c1C(=O)NCC(N)C(F)(F)F (racemic) [Example 207, rac-N-(2-Amino-3,3,3-trifluoropropyl)-8-[(2,6-difluorobenzyl)oxy]-2-methylimidazo[1,2-a]-pyridine-3-carboxamide]
1.00	COCC(C)(N)CNC(=O)c1c(C)nc2c(OCc3c(F)cccc3F)cccn12 (racemic) [Example 213, rac-N-(2-Amino-3-methoxy-2-methylpropyl)-8-[(2,6-difluorobenzyl)oxy]-2-methylimidazo[1,2-a]-pyridine-3-carboxamide]
1.00	Cc1nc2c(OCc3c(F)cccc3F)cc(Cl)cn2c1C(=O)NCC(N)COC(C)C (racemic) [Example 217, rac-N-(2-Amino-3-isopropoxypropyl)-6-chloro-8-[(2,6-difluorobenzyl)oxy]-2-methylimidazo[1,2-a]pyridine-3-carboxamide]
0.10	Cc1cc(OCc2c(F)cccc2F)c2nc(C)c(C(=O)NCC(C)(N)CC(C)C)n2c1 (racemic) [Example 218, rac-N-(2-Amino-2,4-dimethylpentyl)-8-[(2,6-difluorobenzyl)oxy]-2,6-dimethylimidazo[1,2-a]-pyridine-3-carboxamide]
